# Reference: patent publication US20070021360A1, “Compositions, formulations and kit with anti-sense oligonucleotide and anti-inflammatory steroid and/or obiquinone for treatment of respiratory and lung disesase” (priority 2001, published 2007)
# What was measured:
# HT-29 SF cells [1] = assay: DHEA effect on cell growth (Coulter counter)
# Procedure: Cell cultures, HT-29 SF cells, which represent a subline of HY-29 cells (ATCC, Rockville, Md.) and are adapted for growth in completely defined serum-free PC-1 medium (Ventrex, Portland, Me.), were obtained. Stock cultures were maintained in this medium at 37° in a humidified atmosphere containing 5% CO2.
# G6PDH = assay: Enzymatic assay of purified G6PDH; details: in vitro; compared to control
# Procedure: All experiments were repeated 4 times.
# A second group was added different concentrations of a CoQ of long side chain (in triplicate), and a third group received a CoQ of short side chain (in triplicate), both at various doses in the μM range.
# The reaction was started by addition of the enzyme, and the increase in absorbance at 340 nm was measured for 5 minutes. Each data point was conducted in triplicate, and the full experiment was repeated 4 times.
# HT-29 SF cells [2] = assay: DHEA effect on cell cycle distribution (flow cytometry); assay type: cell-based, human; details: 25, 50, or 200 μM DHEA; 24, 48, 72 hours
# Procedure: Cells were plated at 10^5/60-rm dish in duplicate. […] Cultures were trypsinized following […] and fixed and stained using a modification of a procedure of Bauer et al., Cancer Res., 46, 3173-3178 (1986). Briefly, cells were collected by centrifugation and resuspended in cold phosphate-buffered saline. Cells were fixed in 70% ethanol, washed, and resuspended in phosphate-buffered saline.
# After 24, 48, and 72 hours, cells were harvested, fixed in ethanol, and stained with propidium iodide, and the DNA content/cell was determined by flow cytometric analysis. The percentage of cells in G1, S, and G2M phases was calculated using the Cellfit cell cycle analysis program. S phase is marked by a quadrangle for clarity. Representative histograms from duplicate determinations are shown. The experiment was repeated three times.
# A transient increase in G2M phase cells was apparent after 48 hours.
structure (smiles),measurement,setting,value
"C[C@]12CC[C@H](O)CC1=CC[C@@H]1[C@@H]2CC[C@]2(C)C(=O)CC[C@@H]12 [DHEA, 3β-hydroxyandrost-5-en-17-one]",inhibition of growth,"HT-29 SF cells [1]; 0-200 μM DHEA, 0-72 hours",time- and dose-dependent inhibition of growth
same,exposure time after which cell number was reduced compared to controls,HT-29 SF cells [1]; 12.5 μM DHEA,72 h
same,exposure time after which cell number was reduced compared to controls,HT-29 SF cells [1]; 200 μM DHEA,24 h
same,exposure time after which cell number was reduced compared to controls,HT-29 SF cells [1]; 25 or 50 μM DHEA,48 h
same,inhibition of activity of purified G6PDH,G6PDH,72%
same,effect on cell cycle distribution,HT-29 SF cells [2],G1 block
